Structures are written as SMILES. ≈ marks a conversion by molar mass, not a printed value.

Data on 5 compounds can be found in US12691086B2, “Methods of treating systemic sclerosis and idiopathic pulmonary fibrosis” (HORIZON THERAPEUTICS IRELAND DAC, priority 2022, dated 2026).

Data set [1] relates to idiopathic pulmonary fibrosis. To be noted: Palmer et al. Chest 2018; cited from earlier work.
Data set [2] in a line: Physical stability of solid state forms, examined by FTIR. In kind it is physicochemical. To be noted: 80° C./75% RH, 1 week (7 days), open glass vials. Here is the method:
The physical stability of Forms 1, 2, and 3 was investigated at 80° C./75% RH in order to determine if interconversion was observed. The samples were examined by FTIR after stressing 1 week in open glass vials.

Data set [3] in a line: Solubility of the different polymorphs in phosphate buffer. In kind it is physicochemical. To be noted: for solubility, concentration versus time: pH 7.4 phosphate buffer, 25° C.; for equilibrium solubility relative to Form 1: 24 hours. Here is the method:
The solubility of the different polymorphs was determined at pH 7.4 in phosphate buffer at 25° C. Samples were analyzed as a function of time for each form to determine the equilibrium values. The residual solids from each sample were analyzed to verify that the form was unchanged during the experiment. The concentration (mg/mL) versus time data is listed below for each form: […]

Data set [4] in a line: Dynamic Vapor Sorption (DVS). In kind it is physicochemical. The protocol:
Moisture sorption/desorption isotherms are recorded on a DVS-1 from SURFACE MEASUREMENT SYSTEMS. Two cycles are run at 25° C., in which the Relative Humidity (RH) is stepped from 0 to 95% and back to 0%. The data is evaluated with the software DVSWin V. 2.15.

For `Cc1noc(-c2ccc(-c3ccc(C4(C(=O)O)CC4)cc3)cc2)c1NC(=O)O[C@H](C)c1ccccc1` [BMS-986020], the “rate of decline in forced vital capacity (FVC) compared with placebo” value in data set [1] is reported as “significantly slowed”.

For `COc1ccc(C(=O)NC2(C(=O)O)Cc3ccccc3C2)cc1OCCc1cccc(C)c1` [Form 1, 2-(4-methoxy-3-(3-methylphenethoxy)benzamido)-2,3-dihydro-1H-indene-2-carboxylic acid], in data set [2], the “changes in FTIR spectrum (physical stability, interconversion)” value (“changes in FTIR spectrum” below) is reported as “unchanged FTIR”. Moreover, the “solubility, concentration versus time” value in data set [3] (1 hr) is 42 µg/mL (≈ 94.3 µM); in data set [3] (2 hr), 41 µg/mL (≈ 92 µM); in data set [3] (3 hr) it was 42 µg/mL (≈ 94.3 µM). The Reversible water uptake entry in data set [4] (25° C.) was “less than 1%”; in data set [4] (between 0 and 95% RH), ~ −0.1 % w/w.

For the compound `COc1ccc(C(=O)NC2(C(=O)O)Cc3ccccc3C2)cc1OCCc1cccc(C)c1` [Form 2, 2-(4-methoxy-3-(3-methylphenethoxy)benzamido)-2,3-dihydro-1H-indene-2-carboxylic acid], the “changes in FTIR spectrum” value in data set [2] is “unchanged FTIR”. In addition, in data set [3] (24 hour), the “24 hour solubility result, greater than Form 1” value is reported as “more than 30%”. Also, the “solubility, concentration versus time” value in data set [3] (1 hr) was found to be 34 µg/mL (≈ 76.3 µM); in data set [3] (2 hr), 39 µg/mL (≈ 87.5 µM); in data set [3] (3 hr) it was 43 µg/mL (≈ 96.5 µM).

Regarding `COc1ccc(C(=O)NC2(C(=O)O)Cc3ccccc3C2)cc1OCCc1cccc(C)c1` [Form 3, 2-(4-methoxy-3-(3-methylphenethoxy)benzamido)-2,3-dihydro-1H-indene-2-carboxylic acid], in data set [2], the “changes in FTIR spectrum” value is “unchanged FTIR”. Moreover, in data set [3], the “equilibrium solubility relative to Form 1” value is on record as “more than double”. Moreover, the “solubility, concentration versus time” value in data set [3] (1 hr) was determined as 83 µg/mL (≈ 186 µM); in data set [3] (2 hr) it was 93 µg/mL (≈ 209 µM); in data set [3] (3 hr), 95 µg/mL (≈ 213 µM).

As for `COc1ccc(C(=O)NC2(C(=O)O)Cc3ccccc3C2)cc1OCCc1cccc(C)c1` [Form 4, 2-(4-methoxy-3-(3-methylphenethoxy)benzamido)-2,3-dihydro-1H-indene-2-carboxylic acid], the “equilibrium solubility relative to Form 1” value in data set [3] is reported as “more than double”. Further, the “solubility, concentration versus time” value in data set [3] (1 hr) was 79 µg/mL (≈ 177 µM); in data set [3] (2 hr) it was 89 µg/mL (≈ 200 µM); in data set [3] (3 hr) it was 105 µg/mL (≈ 236 µM).
